Patent US8487090B2, “Water solution of 20(R)-ginsenoside Rg3 pharmaceutical composition and process thereof” (Dalian Fusheng Natural Medicine Development Co., Ltd., priority 2006, dated 2013)
Read-outs that look alike come from different tables or passages of the source. Marks after values point to notes of the source that are not given here.

Assays:
[1] = cited from earlier work
[2] = system: Human Liver Cancer QGY Model; assay: Liver in situ inoculation model, survival; format: in vivo, nude mice; conditions: 30 mg/kg/d ip × 7 qd
Description: (§1) Take intravenous administration, twice per day. For mice models inoculated with human tumor models and cells, continue injection for seven days; for mice models inoculated with mouse tumor cells, continue injection for five days.
(§2) Positive controls: CTX, 30 mg/kg; MMC, 2 mg/kg; 5Fu, 30 mg/kg; intraperitoneal or intravenous injection, once daily, continues for 7 days.

Mouse Melanoma B16 Model = assay: Caudal vein inoculation model, lung metastatic colonies; format: in vivo, C57BL/6 mouse
Description: as §1, §2
(§3) Mouse B16 melanoma cells in logarithmic growth phase are taken out under sterile condition, and a cell suspension with a density of about 2.5×10^5 cells/ml is prepared. Inoculate 0.2 ml/mouse of cell suspension into caudal vein of C57BL/6 mouse. Administrate the test drug next day according to the experimental design protocol, euthanize the animal after ˜3 weeks and remove the lungs from mice and count the metastatic colony in the lungs of each mouse. Calculate the tumor inhibition percentage based on the group mean colony by the following formula: Tumor inhibition percentage (%)=[(mean colony of control group−mean colony of treatment group)/mean colony of control group]×100% 5.3 Antineoplastic Toxicity Attenuation Bioassay

[3] = format: in vivo, C57BL/6 mouse; conditions: for Body Weight of Animals (g) End: Table 5
Description: as §3

[4] = system: Human Intestine Cancer LOVO Model; assay: Efficacy bioassay on intestine cancer model, survival; format: in vivo, nude mice; conditions: 30 mg/kg/d ip × 7 qd
Excerpt: Human intestine cancer LOVO model, human stomach cancer MGC model, and human liver cancer QGY model, all tumor strains are in vivo subcultured for more than 2nd generation. Mouse melanoma B16 cell are subcultured and maintained by Pharmacology Department of Shanghai Institute of Pharmaceutical Industry.
as §1, §2

[5] = system: Human Gastric Cancer MGC Model; assay: Stomach in situ inoculation model, survival; format: in vivo, nude mice; conditions: 30 mg/kg/d ip × 7 qd
Description: as §1, §2
Take strongly growing in-vivo 2nd-generation MGC stomach cancer (cells) under sterile condition, and prepare it into a cell suspension with a density of 2×10^7 cells/ml by a homogenate method. Inject 0.05 ml of the cell suspension into the muscular layer of greater curvature of stomach of the nude mice via a surgery operation. Administrate the above mice with test drug next day according to the experimental design protocol, and calculate the life extension percentage of the tumor bearing host: Life extension percentage (%)=(mean survival days of treatment group/mean survival days of control)×100% 5.1.2 Liver In Situ Inoculation Model

[6] = system: mouse liver cancer model (Heps); assay: Chemotherapy efficacy potentiation bioassay, tumor weight; format: in vivo
Description: Take strongly growing tumor cells under sterile condition, and prepare it into a cell suspension with a density of about 1˜2×10^7 cells/ml by a homogenate method. Inoculate 0.2 ml/mouse of the cell suspension subcutaneously into the armpit of the axillary host. Administrate the test drug next day according to the experimental design protocol. Euthanize each group animal after ˜3 weeks and remove the tumor from mice and weigh it. Calculate the tumor inhibition percentage by the following formula: Tumor inhibition percentage (%)=[(mean tumor weight of control group−mean tumor weight of treatment group)/mean tumor weight of control group]×100% 5.2.2 Caudal Vein Inoculation Model

[7] = Chemotherapy toxicity attenuation bioassay, blood counts; format: in vivo, mouse; conditions: Heps bearing mice

In the case of CC(C)=CCC[C@](C)(O)[C@H]1CC[C@]2(C)[C@@H]1[C@H](O)C[C@@H]1[C@@]3(C)CC[C@H](O[C@@H]4O[C@H](CO)[C@@H](O)[C@H](O)[C@H]4O[C@@H]4O[C@H](CO)[C@@H](O)[C@H](O)[C@H]4O)C(C)(C)[C@@H]3CC[C@]12C [20(R)-ginsenoside Rg3], the solubility in water [1] is given as “insoluble in water”.

For CC(C)=CCC[C@](C)(O)[C@H]1CC[C@]2(C)[C@@H]1[C@H](O)C[C@@H]1[C@@]3(C)CC[C@H](O[C@@H]4O[C@H](CO)[C@@H](O)[C@H](O)[C@H]4O[C@@H]4O[C@H](CO)[C@@H](O)[C@H](O)[C@H]4O)C(C)(C)[C@@H]3CC[C@]12C [20(S)-ginsenoside Rg3], the solubility in water [1] is listed as “easily dissolvable in water”.

For O=P1(N(CCCl)CCCl)NCCCO1 (stereo not shown) [CTX, Cyclophosphamide], the “Life Extension Percentage T/C × %” value [2] was 157.53%, the “Mean Survival Time (d) mean ± SD” value [2] was 34.50 ± 4.0 days and the “Antimetastatic Percentage %” value (Mouse Melanoma B16 Model; Table 2, 100 mg/kg/d ip × 2 qd) was 92.41%. For the same molecule, the “Lung Colony (number) mean ± SD” value (Mouse Melanoma B16 Model; Table 2, 100 mg/kg/d ip × 2 qd) was 3.5 ± 3.7 number, the “Antimetastatic Percentage %” value (Mouse Melanoma B16 Model; Table 5, 15 mg/kg/d ip × 7 qd) was 48.11% and the “Lung Colony (number) mean ± SD” value (Mouse Melanoma B16 Model; Table 5, 15 mg/kg/d ip × 7 qd) was 26.1 ± 5.2 number. The “Antimetastatic Percentage %” value (Mouse Melanoma B16 Model; Table 5, 30 mg/kg/d ip × 7 qd) was 93.44%, the “Lung Colony (number) mean ± SD” value (Mouse Melanoma B16 Model; Table 5, 30 mg/kg/d ip × 7 qd) was 3.30 ± 2.6 number and the “Body Weight of Animals (g) end” value ([3]; Table 2, 100 mg/kg/d ip × 2 qd) was 19.8/22.6 g. For the same molecule, the “Body Weight of Animals (g) End” value ([3]; 15 mg/kg/d ip × 7 qd) was 20.2/24.7 g, the “Body Weight of Animals (g) End” value ([3]; 30 mg/kg/d ip × 7 qd) was 19.9/22.6 g and the “Life Extension Percentage T/C × %” value [4] was 214.71%. The “Mean Survival Time (d) mean ± SD” value [4] was 29.20 ± 4.8 days, the “Life Extension Percentage T/C × %” value [5] was 181.02% and the “Mean Survival Time (d) mean ± SD” value [5] was 41.20 ± 3.8 days. For the same molecule, the “Mean Tumor weight (g, mean ± SD)” value ([6]; 10 × 3 mg/kg/d) was 0.89 ± 0.29 g, the “Tumor Inhibition Percentage (%)” value ([6]; 10 × 3 mg/kg/d) was 56.52% and the “Hb” value ([7]; 10 × 3 mg/kg/d) was 82 ± 8.4 g/L. For the same molecule, the “RBC 10^12/L” value ([7]; 10 × 3 mg/kg/d) was 2.8 ± 0.3** 10^12/L and the “WBC (10^9/L)” value ([7]; 10 × 3 mg/kg/d) was 3.2 ± 0.5** 10^9/L.

For O=c1[nH]c(=O)n([C@H]2C[C@H](O)[C@@H](CO)O2)cc1F [Example 5Fu, 5-Fluorodeoxyuridine], the “Mean Tumor weight (g, mean ± SD)” value ([6]; 25 × 3 mg/kg/d) was 1.08 ± 0.34 g, the “Tumor Inhibition Percentage (%)” value ([6]; 25 × 3 mg/kg/d) was 41.30% and the “Hb” value ([7]; 25 × 3 mg/kg/d) was 90 ± 13.0 g/L. The “RBC 10^12/L” value ([7]; 25 × 3 mg/kg/d) was 3.1 ± 0.4 10^12/L and the “WBC (10^9/L)” value ([7]; 25 × 3 mg/kg/d) was 3.9 ± 0.3** 10^9/L.

In the case of CN(Cc1cnc2nc(N)nc(N)c2n1)c1ccc(C(=O)N[C@@H](CCC(=O)O)C(=O)O)cc1 [MTX], the “Mean Tumor weight (g, mean ± SD)” value ([6]; 5 × 3 mg/kg/d) is reported as 0.27 ± 0.01 g, the “Tumor Inhibition Percentage (%)” value ([6]; 5 × 3 mg/kg/d) is reported as 85.32% and the “Hb” value ([7]; 5 × 3 mg/kg/d) is reported as 51 ± 1.0 g/L. For the same molecule, the “RBC 10^12/L” value ([7]; 5 × 3 mg/kg/d) was 1.8 ± 0.1** 10^12/L and the “WBC (10^9/L)” value ([7]; 5 × 3 mg/kg/d) was 1.6 ± 0.1** 10^9/L.

For N.N.[Cl][Pt][Cl] [PDD], the “Mean Tumor weight (g, mean ± SD)” value ([6]; 1 × 3 mg/kg/d) was 1.09 ± 0.30 g and the “Tumor Inhibition Percentage (%)” value ([6]; 1 × 3 mg/kg/d) was 40.76%.
